Data reported in paper PMC12203311, “Design, synthesis, in silico and in vitro evaluation of pyrrole–indole hybrids as dual tubulin and aromatase inhibitors with potent anticancer activities” (RSC Advances, 2025).

Key:
SK-MEL-2 = experiment: NCI60 five-dose screen; format: cell-based; settings: Homo sapiens, SK-MEL-2, melanoma; for CC50: read-out: LC50 (the source's name)
HT29 = experiment: NCI60 five-dose screen; format: cell-based; settings: Homo sapiens, HT-29, HT29, colon cancer; for CC50: read-out: LC50 (the source's name)
SK-MEL-28 = experiment: NCI60 five-dose screen; format: cell-based; settings: Homo sapiens, SK-MEL-28, melanoma; for CC50: read-out: LC50 (the source's name)
PC-3 = experiment: NCI60 five-dose screen; format: cell-based; settings: Homo sapiens, PC-3, prostate cancer; for CC50: read-out: LC50 (the source's name)
OVCAR-8 = experiment: NCI60 five-dose screen; format: cell-based; settings: Homo sapiens, OVCAR-8, ovarian cancer; for CC50: read-out: LC50 (the source's name)
SF-539 = experiment: NCI60 five-dose screen; format: cell-based; settings: Homo sapiens, SF-539, CNS cancer; for CC50: read-out: LC50 (the source's name)
RXF 393 = experiment: NCI60 five-dose screen; format: cell-based; settings: Homo sapiens, RXF 393, renal cancer; for CC50: read-out: LC50 (the source's name)
NCI-H322M = experiment: NCI60 five-dose screen; format: cell-based; settings: Homo sapiens, NSC lung cancer; for CC50: read-out: LC50 (the source's name)
CCRF-CEM = experiment: NCI60 five-dose screen; format: cell-based; settings: Homo sapiens, leukemia; for CC50: read-out: LC50 (the source's name)
NCI-H522 = experiment: NCI60 five-dose screen; format: cell-based; settings: Homo sapiens, NCI-H522, NSC lung cancer; for CC50: read-out: LC50 (the source's name)
NCI/ADR-RES = experiment: NCI60 five-dose screen; format: cell-based, human; settings: Homo sapiens, ovarian cancer; for CC50: read-out: LC50 (the source's name)
UO-31 = experiment: NCI60 five-dose screen; format: cell-based; settings: Homo sapiens, UO-31, renal cancer; for CC50: read-out: LC50 (the source's name)
T-47D = experiment: NCI60 five-dose screen; format: cell-based; settings: Homo sapiens, T47D, breast cancer; for CC50: read-out: LC50 (the source's name)
OVCAR-4 = experiment: NCI60 five-dose screen; format: cell-based; settings: Homo sapiens, OVCAR-4, ovarian cancer; for CC50: read-out: LC50 (the source's name)
K-562 = experiment: NCI60 five-dose screen; format: cell-based; settings: Homo sapiens, K562, K-562, leukemia; for CC50: read-out: LC50 (the source's name)
SF-295 = experiment: NCI60 five-dose screen; format: cell-based; settings: Homo sapiens, SF-295, CNS cancer; for CC50: read-out: LC50 (the source's name)
UACC-257 = experiment: NCI60 five-dose screen; format: cell-based; settings: Homo sapiens, UACC-257, melanoma; for CC50: read-out: LC50 (the source's name)
[1] = tested on: L929 normal mouse fibroblast cell line; experiment: Cytotoxicity MTT assay, L929; format: cell-based; settings: 50 µM single concentration
Method: T47D (ATCC HTB-133) was purchased from Biomedia (Thailand) Co., LTD. L929 (ATCC CCL-1) was received as a gift from Prof. Tanapat Palaga, Department of Microbiology, Faculty of Science, Chulalongkorn University, Bangkok, Thailand. The cells were cultured in Dulbecco's Modified Eagle's Medium (DMEM; Gibco) supplemented with 10% fetal bovine serum (FBS; HyClone), 100 U mL^−1 penicillin and 100 µg mL^−1 streptomycin (Gibco) at 37 °C with 5% CO2.
The antiproliferative activity was determined by MTT assay. Briefly, the cells were plated into a 96-well microplate at the density of 10 000 cells per well. The cells were allowed to grow overnight before treated with the solutions of compounds in culture medium at the designated concentrations for 48 hours. The medium was then replaced with MTT solution (0.5 mg mL^−1 MTT in culture medium) and incubated for 3 hours. A 100 µL of DMSO was used to dissolve the produced formazan. Absorbance at 570 nm was then measured using a microplate reader (Varioskan™ LUX multimode microplate reader, Thermo Scientific™). Percent viability was calculated relative to the vehicle control (DMSO).

HCT-15 = experiment: NCI60 five-dose screen; format: cell-based; settings: Homo sapiens, HCT-15, colon cancer; for CC50: read-out: LC50 (the source's name)
KM12 = experiment: NCI60 five-dose screen; format: cell-based; settings: Homo sapiens, KM12, colon cancer; for CC50: read-out: LC50 (the source's name)
HCT-116 = experiment: NCI60 five-dose screen; format: cell-based; settings: Homo sapiens, HCT-116, colon cancer; for CC50: read-out: LC50 (the source's name)
SN12C = experiment: NCI60 five-dose screen; format: cell-based; settings: Homo sapiens, renal cancer; for CC50: read-out: LC50 (the source's name)
IGROV1 = experiment: NCI60 five-dose screen; format: cell-based; settings: Homo sapiens, IGROV-1; IGROV1, ovarian cancer
NCI-H460 = experiment: NCI60 five-dose screen; format: cell-based; settings: Homo sapiens, NCI-H460, NSC lung cancer; for CC50: read-out: LC50 (the source's name)
EKVX = experiment: NCI60 five-dose screen; format: cell-based; settings: Homo sapiens, NSC lung cancer; for CC50: read-out: LC50 (the source's name)
HOP-92 = experiment: NCI60 five-dose screen; format: cell-based; settings: Homo sapiens, HOP-92, NSC lung cancer; for CC50: read-out: LC50 (the source's name)
MCF7 = experiment: NCI60 five-dose screen; format: cell-based; settings: Homo sapiens; for CC50: read-out: LC50 (the source's name)
[2] = tested on: T47D breast cancer cell line; experiment: Cytotoxicity MTT assay, T47D; format: cell-based, human; settings: Homo sapiens, T47D; MTT, 48 hours
Summary of the method: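 MTT read-out after 48 h compound exposure: 0.5 mg/mL MTT for 3 h, DMSO-solubilised formazan read at 570 nm and expressed relative to vehicle. Cells, T47D or L929 in DMEM with 10% FBS at 37 °C/5% CO2, were plated at 10 000 per well the night before.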

MOLT-4 = experiment: NCI60 five-dose screen; format: cell-based; settings: Homo sapiens, MOLT-4, leukemia; for CC50: read-out: LC50 (the source's name)
SW-620 = experiment: NCI60 five-dose screen; format: cell-based; settings: Homo sapiens, SW-620, colon cancer; for CC50: read-out: LC50 (the source's name)
U251 = experiment: NCI60 five-dose screen; format: cell-based; settings: Homo sapiens, U-251, U251, CNS cancer; for CC50: read-out: LC50 (the source's name)

Cn1cccc1/C=N/NC(=O)c1[nH]c2ccc(Br)cc2c1-c1ccccc1 [Derivative 3d, (E)-5-Bromo-N′-((1-methyl-1H-pyrrol-2-yl)methylene)-3-phenyl-1H-indole-2-carbohydrazide]
GI50 (SK-MEL-2): 366 nM | CC50 (SK-MEL-2): > 100000 nM | GI50 (HT29): 327 nM | CC50 (HT29): > 100000 nM | GI50 (SK-MEL-28): 4700 nM | CC50 (SK-MEL-28): > 100000 nM | GI50 (PC-3): 564 nM | CC50 (PC-3): > 100000 nM | GI50 (OVCAR-8): 390 nM | CC50 (OVCAR-8): > 100000 nM | GI50 (SF-539): 217 nM | CC50 (SF-539): > 100000 nM | GI50 (RXF 393): 280 nM | CC50 (RXF 393): > 100000 nM | GI50 (NCI-H322M): 1980 nM | CC50 (NCI-H322M): > 100000 nM | GI50 (CCRF-CEM): 429 nM | CC50 (CCRF-CEM): > 100000 nM | GI50 (NCI-H522): 217 nM | CC50 (NCI-H522): > 100000 nM | GI50 (NCI/ADR-RES): 186 nM | CC50 (NCI/ADR-RES): 40900 nM | GI50 (UO-31): 330 nM | CC50 (UO-31): > 100000 nM | GI50 (T-47D): 344 nM | CC50 (T-47D): > 100000 nM | GI50 (OVCAR-4): 637 nM | CC50 (OVCAR-4): > 100000 nM | GI50 (K-562): 327 nM | CC50 (K-562): > 100000 nM | GI50 (SF-295): 321 nM | CC50 (SF-295): > 100000 nM | GI50 (UACC-257): 416 nM | CC50 (UACC-257): > 100000 nM | L929 cell survival [1]: > 80% | L929 toxicity at single concentration [1]: — ^c (No toxicity observed at 50 µM single concentration (>80% cell survival).) | GI50 (HCT-15): 228 nM | CC50 (HCT-15): > 100000 nM | GI50 (KM12): 357 nM | CC50 (KM12): > 100000 nM | GI50 (HCT-116): 427 nM | CC50 (HCT-116): > 100000 nM | GI50 (SN12C): 497 nM | CC50 (SN12C): > 100000 nM | GI50 (IGROV1): 621 nM | GI50 (NCI-H460): 442 nM | CC50 (NCI-H460): > 100000 nM | GI50 (EKVX): 641 nM | CC50 (EKVX): > 100000 nM | GI50 (HOP-92): 429 nM | CC50 (HOP-92): > 100000 nM | GI50 (MCF7; MCF7, MCF-7 breast cancer cells): 72 nM | CC50 (MCF7; MCF7, breast cancer): > 100000 nM | IC50 [2]: 1000 ± 400 nM | GI50 (MOLT-4): 438 nM | CC50 (MOLT-4): > 100000 nM | GI50 (SW-620): 432 nM | CC50 (SW-620): > 100000 nM | GI50 (U251): 477 nM | CC50 (U251): > 100000 nM

CCOC(=O)c1ccc(/C=N/NC(=O)c2[nH]c3ccc(Br)cc3c2-c2ccccc2)[nH]1 [Derivative 3i, Ethyl (E)-5-((2-(5-bromo-3-phenyl-1H-indole-2-carbonyl)hydrazono)methyl)-1H-pyrrole-2-carboxylate]
GI50 (SK-MEL-2): 2380 nM | CC50 (SK-MEL-2): 55000 nM | GI50 (HT29): 2320 nM | CC50 (HT29): 22900 nM | GI50 (SK-MEL-28): 2650 nM | CC50 (SK-MEL-28): 94500 nM | GI50 (PC-3): 2280 nM | CC50 (PC-3): > 100000 nM | GI50 (OVCAR-8): 2490 nM | CC50 (OVCAR-8): 47600 nM | GI50 (SF-539): 1600 nM | CC50 (SF-539): 26200 nM | GI50 (RXF 393): 1690 nM | CC50 (RXF 393): 66400 nM | GI50 (NCI-H322M): 3300 nM | CC50 (NCI-H322M): > 100000 nM | GI50 (CCRF-CEM): 3040 nM | CC50 (CCRF-CEM): > 100000 nM | GI50 (NCI-H522): 460 nM | CC50 (NCI-H522): 82200 nM | GI50 (NCI/ADR-RES): 897 nM | CC50 (NCI/ADR-RES): 9200 nM | GI50 (UO-31): 1480 nM | CC50 (UO-31): > 100000 nM | GI50 (T-47D): 4200 nM | CC50 (T-47D): > 100000 nM | GI50 (OVCAR-4): 4260 nM | CC50 (OVCAR-4): > 100000 nM | GI50 (K-562): 1080 nM | CC50 (K-562): > 100000 nM | GI50 (SF-295): 1800 nM | CC50 (SF-295): 38100 nM | GI50 (UACC-257): 2970 nM | CC50 (UACC-257): 87400 nM | L929 cell survival [1]: > 80% | L929 toxicity at single concentration [1]: — ^c (No toxicity observed at 50 µM single concentration (>80% cell survival).) | GI50 (HCT-15): 2480 nM | CC50 (HCT-15): 40500 nM | GI50 (KM12): 2220 nM | CC50 (KM12): 38000 nM | GI50 (HCT-116): 3240 nM | CC50 (HCT-116): > 100000 nM | GI50 (SN12C): 2860 nM | CC50 (SN12C): 36200 nM | GI50 (IGROV1): 2020 nM | GI50 (NCI-H460): 2800 nM | CC50 (NCI-H460): 41400 nM | GI50 (EKVX): 4290 nM | CC50 (EKVX): > 100000 nM | GI50 (HOP-92): 2330 nM | CC50 (HOP-92): > 100000 nM | GI50 (MCF7; MCF7, breast cancer): 1540 nM | CC50 (MCF7; MCF7, breast cancer): > 100000 nM | IC50 [2]: 11800 ± 1400 nM | GI50 (MOLT-4): 2490 nM | CC50 (MOLT-4): > 100000 nM | GI50 (SW-620): 3930 nM | CC50 (SW-620): 53600 nM | GI50 (U251): 2820 nM | CC50 (U251): 39400 nM
